Legend:
Assay in all cases: relative viability (nuclei count vs DMSO), 5 days (fraction); higher = more cells survive
NCI-H2342 = system: NCI-H2342
How it was run: (§1)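 Dosing by pin tool came one day after lung cancer cell lines were seeded in 1536-well plates, using either one drug or a fixed anchor-drug dose plus five library-drug doses (not always all listed) in √10 steps. After 5 days, nuclei were counted on 4× images. Relative viability is treated-well nuclei count divided by vehicle-well nuclei count, and values are medians of duplicate plates.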

NCI-H1793 = system: NCI-H1793
How it was run: as §1

NCI-H23 = system: NCI-H23
How it was run: as §1

HCC-15 = system: HCC-15
How it was run: as §1

EMC-BAC-2 = system: EMC-BAC-2
How it was run: as §1

COR-L23 = system: COR-L23
How it was run: as §1

COR-L 105 = system: COR-L 105
How it was run: as §1

NCI-H1915 = system: NCI-H1915
How it was run: as §1

SK-MES-1 = system: SK-MES-1
How it was run: as §1

LC-2-ad = system: LC-2-ad
How it was run: as §1

NCI-H2009 = system: NCI-H2009
How it was run: as §1

NCI-H650 = system: NCI-H650
How it was run: as §1

NCI-H2347 = system: NCI-H2347
How it was run: as §1

NCI-H1395 = system: NCI-H1395
How it was run: as §1

NCI-H1755 = system: NCI-H1755
How it was run: as §1

PC-14 = system: PC-14
How it was run: as §1

NCI-H2023 = system: NCI-H2023
How it was run: as §1

NCI-H1437 = system: NCI-H1437
How it was run: as §1

NCI-H1792 = system: NCI-H1792
How it was run: as §1

201T = system: 201T
How it was run: as §1

NCI-H358 = system: NCI-H358
How it was run: as §1

Question: For `CN1CCN(CCOc2cc(OC3CCOCC3)c3c(Nc4c(Cl)ccc5c4OCO5)ncnc3c2)CC1` [Saracatinib] + CCNC(=O)c1noc(-c2cc(C(C)C)c(O)cc2O)c1-c1ccc(CN2CCOCC2)cc1 [Luminespib] (partner 0.01 µM), which relative viability (NCI-H2342; first compound 0.02 µM) is on record?
Answer: The relative viability was 0.659.

Question: What about the relative viability (NCI-H2342; first compound 0.2 µM) of the same compound?
Answer: The relative viability was 0.698.

Question: And the relative viability (NCI-H2342; first compound 0.6325 µM)?
Answer: Its relative viability is 0.758.

Question: What about the relative viability (NCI-H2342; first compound 2 µM) of the same compound?
Answer: Its relative viability is 0.519.

Question: What about the relative viability (NCI-H1793; first compound 0.02 µM) of the same compound?
Answer: The relative viability was 0.2.

Question: What about the relative viability (NCI-H1793; first compound 0.6325 µM) of the same compound?
Answer: The relative viability was 0.173.

Question: And the relative viability (NCI-H1793; first compound 2 µM)?
Answer: Its relative viability is 0.177.

Question: And the relative viability (NCI-H23; first compound 0.02 µM)?
Answer: The relative viability was 0.247.

Question: What about the relative viability (NCI-H23; first compound 0.2 µM) of the same compound?
Answer: The relative viability was 0.193.

Question: What about the relative viability (NCI-H23; first compound 0.6325 µM) of the same compound?
Answer: The relative viability was 0.196.

Question: And the relative viability (NCI-H23; first compound 2 µM)?
Answer: The relative viability was 0.219.

Question: And the relative viability (HCC-15; first compound 0.02 µM)?
Answer: Its relative viability is 0.343.

Question: And the relative viability (HCC-15; first compound 0.2 µM)?
Answer: The relative viability was 0.32.

Question: What about the relative viability (HCC-15; first compound 0.6325 µM) of the same compound?
Answer: The relative viability was 0.331.

Question: And the relative viability (HCC-15; first compound 2 µM)?
Answer: The relative viability was 0.176.

Question: And the relative viability (EMC-BAC-2; first compound 0.02 µM)?
Answer: Its relative viability is 1.21.

Question: And the relative viability (EMC-BAC-2; first compound 0.2 µM)?
Answer: The relative viability was 0.894.

Question: And the relative viability (EMC-BAC-2; first compound 0.6325 µM)?
Answer: The relative viability was 1.16.

Question: What about the relative viability (EMC-BAC-2; first compound 2 µM) of the same compound?
Answer: Its relative viability is 0.978.

Question: And the relative viability (COR-L23; first compound 0.02 µM)?
Answer: Its relative viability is 0.694.

Question: What about the relative viability (COR-L23; first compound 0.2 µM) of the same compound?
Answer: The relative viability was 0.605.

Question: And the relative viability (COR-L23; first compound 0.6325 µM)?
Answer: The relative viability was 0.575.

Question: What about the relative viability (COR-L23; first compound 2 µM) of the same compound?
Answer: The relative viability was 0.558.

Question: What about the relative viability (COR-L 105; first compound 0.02 µM) of the same compound?
Answer: The relative viability was 0.893.

Question: What about the relative viability (COR-L 105; first compound 0.2 µM) of the same compound?
Answer: Its relative viability is 0.692.

Question: What about the relative viability (COR-L 105; first compound 0.6325 µM) of the same compound?
Answer: The relative viability was 0.608.

Question: And the relative viability (COR-L 105; first compound 2 µM)?
Answer: The relative viability was 0.467.

Question: What about the relative viability (NCI-H1915; first compound 0.02 µM) of the same compound?
Answer: Its relative viability is 0.742.

Question: And the relative viability (NCI-H1915; first compound 0.2 µM)?
Answer: Its relative viability is 0.703.

Question: And the relative viability (NCI-H1915; first compound 0.6325 µM)?
Answer: Its relative viability is 0.872.

Question: And the relative viability (NCI-H1915; first compound 2 µM)?
Answer: Its relative viability is 0.654.

Question: What about the relative viability (SK-MES-1; first compound 0.02 µM) of the same compound?
Answer: Its relative viability is 0.627.

Question: What about the relative viability (SK-MES-1; first compound 0.2 µM) of the same compound?
Answer: The relative viability was 0.828.

Question: And the relative viability (SK-MES-1; first compound 0.6325 µM)?
Answer: The relative viability was 0.348.

Question: What about the relative viability (SK-MES-1; first compound 2 µM) of the same compound?
Answer: The relative viability was 0.207.

Question: What about the relative viability (LC-2-ad; first compound 0.02 µM) of the same compound?
Answer: The relative viability was 0.985.

Question: What about the relative viability (LC-2-ad; first compound 0.2 µM) of the same compound?
Answer: Its relative viability is 0.912.

Question: What about the relative viability (LC-2-ad; first compound 0.6325 µM) of the same compound?
Answer: Its relative viability is 1.1.

Question: What about the relative viability (LC-2-ad; first compound 2 µM) of the same compound?
Answer: Its relative viability is 0.949.

Question: And the relative viability (NCI-H2009; first compound 0.02 µM)?
Answer: Its relative viability is 0.997.

Question: And the relative viability (NCI-H2009; first compound 0.2 µM)?
Answer: Its relative viability is 1.04.

Question: What about the relative viability (NCI-H2009; first compound 0.6325 µM) of the same compound?
Answer: The relative viability was 0.951.

Question: And the relative viability (NCI-H2009; first compound 2 µM)?
Answer: Its relative viability is 0.913.

Question: And the relative viability (NCI-H650; first compound 0.02 µM)?
Answer: Its relative viability is 0.685.

Question: What about the relative viability (NCI-H650; first compound 0.2 µM) of the same compound?
Answer: Its relative viability is 0.613.

Question: And the relative viability (NCI-H650; first compound 0.6325 µM)?
Answer: The relative viability was 0.87.

Question: And the relative viability (NCI-H650; first compound 2 µM)?
Answer: Its relative viability is 0.68.

Question: What about the relative viability (NCI-H2347; first compound 0.02 µM) of the same compound?
Answer: The relative viability was 0.372.

Question: And the relative viability (NCI-H2347; first compound 0.2 µM)?
Answer: The relative viability was 0.411.

Question: And the relative viability (NCI-H2347; first compound 0.6325 µM)?
Answer: Its relative viability is 0.774.

Question: And the relative viability (NCI-H2347; first compound 2 µM)?
Answer: The relative viability was 0.416.

Question: And the relative viability (NCI-H1395; first compound 0.02 µM)?
Answer: Its relative viability is 0.621.

Question: What about the relative viability (NCI-H1395; first compound 0.2 µM) of the same compound?
Answer: Its relative viability is 0.634.

Question: What about the relative viability (NCI-H1395; first compound 0.6325 µM) of the same compound?
Answer: The relative viability was 0.79.

Question: What about the relative viability (NCI-H1395; first compound 2 µM) of the same compound?
Answer: Its relative viability is 0.62.

Question: What about the relative viability (NCI-H1755; first compound 0.02 µM) of the same compound?
Answer: The relative viability was 0.456.

Question: And the relative viability (NCI-H1755; first compound 0.2 µM)?
Answer: Its relative viability is 0.329.

Question: What about the relative viability (NCI-H1755; first compound 0.6325 µM) of the same compound?
Answer: The relative viability was 0.447.

Question: What about the relative viability (NCI-H1755; first compound 2 µM) of the same compound?
Answer: Its relative viability is 0.414.

Question: And the relative viability (PC-14; first compound 0.02 µM)?
Answer: The relative viability was 0.175.

Question: What about the relative viability (PC-14; first compound 0.2 µM) of the same compound?
Answer: The relative viability was 0.183.

Question: And the relative viability (PC-14; first compound 0.6325 µM)?
Answer: Its relative viability is 0.173.

Question: And the relative viability (PC-14; first compound 2 µM)?
Answer: Its relative viability is 0.227.

Question: And the relative viability (NCI-H2023; first compound 0.02 µM)?
Answer: The relative viability was 0.773.

Question: And the relative viability (NCI-H2023; first compound 0.6325 µM)?
Answer: Its relative viability is 0.735.

Question: And the relative viability (NCI-H2023; first compound 2 µM)?
Answer: The relative viability was 0.471.

Question: And the relative viability (NCI-H1437; first compound 0.02 µM)?
Answer: Its relative viability is 1.13.

Question: And the relative viability (NCI-H1437; first compound 0.2 µM)?
Answer: Its relative viability is 1.13.

Question: And the relative viability (NCI-H1437; first compound 0.6325 µM)?
Answer: Its relative viability is 1.17.

Question: What about the relative viability (NCI-H1437; first compound 2 µM) of the same compound?
Answer: The relative viability was 1.14.

Question: What about the relative viability (NCI-H1792; first compound 0.02 µM) of the same compound?
Answer: The relative viability was 0.369.

Question: And the relative viability (NCI-H1792; first compound 0.2 µM)?
Answer: The relative viability was 0.463.

Question: What about the relative viability (NCI-H1792; first compound 0.6325 µM) of the same compound?
Answer: The relative viability was 0.449.

Question: What about the relative viability (NCI-H1792; first compound 2 µM) of the same compound?
Answer: The relative viability was 0.358.

Question: And the relative viability (201T; first compound 0.02 µM)?
Answer: Its relative viability is 1.05.

Question: What about the relative viability (201T; first compound 0.2 µM) of the same compound?
Answer: The relative viability was 0.956.

Question: What about the relative viability (201T; first compound 0.6325 µM) of the same compound?
Answer: The relative viability was 0.965.

Question: And the relative viability (201T; first compound 2 µM)?
Answer: The relative viability was 0.832.

Question: What about the relative viability (NCI-H358; first compound 0.02 µM) of the same compound?
Answer: The relative viability was 0.174.

Question: And the relative viability (NCI-H358; first compound 0.2 µM)?
Answer: The relative viability was 0.208.

Question: And the relative viability (NCI-H358; first compound 0.6325 µM)?
Answer: The relative viability was 0.309.

Question: And the relative viability (NCI-H358; first compound 2 µM)?
Answer: Its relative viability is 0.318.
